Source: the supplement of paper PMC10307832

Key:
Assay in all cases: relative viability (nuclei count vs DMSO), 5 days (fraction); higher = more cells survive
Palbociclib + Navitoclax = compound: CC(=O)c1c(C)c2cnc(Nc3ccc(N4CCNCC4)cn3)nc2n(C2CCCC2)c1=O [Palbociclib] + CC1(C)CCC(c2ccc(Cl)cc2)=C(CN2CCN(c3ccc(C(=O)NS(=O)(=O)c4ccc(N[C@H](CCN5CCOCC5)CSc5ccccc5)c(S(=O)(=O)C(F)(F)F)c4)cc3)CC2)C1 [Navitoclax] (partner 0.5 µM)
In short: (§1)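 Relative viability equals treated-well nuclei counts divided by vehicle-well nuclei counts. Counts came from 4× images of lung cancer cell lines grown in 1536-well plates for 5 days after pin-tool dosing on the day after seeding. Dosing used one drug alone or a fixed anchor-drug dose plus five library-drug doses (not always all listed) in √10 steps, and values are medians of duplicate plates.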

Palbociclib + Luminespib = compound: CC(=O)c1c(C)c2cnc(Nc3ccc(N4CCNCC4)cn3)nc2n(C2CCCC2)c1=O [Palbociclib] + CCNC(=O)c1noc(-c2cc(C(C)C)c(O)cc2O)c1-c1ccc(CN2CCOCC2)cc1 [Luminespib] (partner 0.01 µM)
In short: as §1

Palbociclib + Alpelisib = compound: CC(=O)c1c(C)c2cnc(Nc3ccc(N4CCNCC4)cn3)nc2n(C2CCCC2)c1=O [Palbociclib] + Cc1nc(NC(=O)N2CCC[C@H]2C(N)=O)sc1-c1ccnc(C(C)(C)C(F)(F)F)c1 [Alpelisib] (partner 2 µM)
In short: as §1

Palbociclib + Lapatinib = compound: CC(=O)c1c(C)c2cnc(Nc3ccc(N4CCNCC4)cn3)nc2n(C2CCCC2)c1=O [Palbociclib] + CS(=O)(=O)CCNCc1ccc(-c2ccc3ncnc(Nc4ccc(OCc5cccc(F)c5)c(Cl)c4)c3c2)o1 [Lapatinib] (partner 2 µM)
In short: as §1

Cell Line	relative viability (Palbociclib + Navitoclax; first compound 0.01 µM)	relative viability (Palbociclib + Navitoclax; first compound 0.03162 µM)	relative viability (Palbociclib + Navitoclax; first compound 0.1 µM)	relative viability (Palbociclib + Navitoclax; first compound 0.3162 µM)	relative viability (Palbociclib + Navitoclax; first compound 1 µM)	relative viability (Palbociclib + Luminespib; first compound 0.01 µM)	relative viability (Palbociclib + Luminespib; first compound 0.03162 µM)	relative viability (Palbociclib + Luminespib; first compound 0.1 µM)	relative viability (Palbociclib + Luminespib; first compound 0.3162 µM)	relative viability (Palbociclib + Luminespib; first compound 1 µM)	relative viability (Palbociclib + Alpelisib; first compound 0.01 µM)	relative viability (Palbociclib + Alpelisib; first compound 0.03162 µM)	relative viability (Palbociclib + Alpelisib; first compound 0.1 µM)	relative viability (Palbociclib + Alpelisib; first compound 0.3162 µM)	relative viability (Palbociclib + Alpelisib; first compound 1 µM)	relative viability (Palbociclib + Lapatinib; first compound 0.01 µM)	relative viability (Palbociclib + Lapatinib; first compound 0.03162 µM)	relative viability (Palbociclib + Lapatinib; first compound 0.1 µM)	relative viability (Palbociclib + Lapatinib; first compound 0.3162 µM)	relative viability (Palbociclib + Lapatinib; first compound 1 µM)
NCI-H1755	1.03	0.974	0.876	0.818	0.715	0.266	0.297	0.451	0.479	0.284	0.949	0.855	0.802	0.766	0.575	1.07	0.604	0.929	0.878	0.617
NCI-H1792	0.583	0.537	0.592	0.461	0.321	0.558	0.498	0.288	0.327	0.371	0.679	0.603	0.543	0.637	0.408	0.872	0.728	0.882	0.752	0.543
NCI-H1793	0.382	0.38	0.506	0.394	0.369	0.17	–	0.243	0.193	0.2	0.749	0.73	0.687	0.487	0.547	0.68	0.619	0.462	0.602	0.355
NCI-H1915	0.764	0.733	0.771	0.782	0.763	0.807	0.674	0.793	0.71	0.629	1.05	1.01	0.982	0.959	0.896	0.972	0.379	1.04	0.942	0.808
NCI-H1944	1.03	1.06	0.878	1.03	0.987	0.683	0.742	0.626	0.666	0.516	0.859	0.723	0.648	0.758	0.525	0.798	0.487	0.772	0.758	0.402
NCI-H1975	1.2	1.02	1.08	0.918	0.877	0.161	0.189	0.102	0.198	0.193	0.634	0.549	0.543	0.469	0.353	0.959	0.831	0.833	0.922	0.711
NCI-H1993	0.84	0.875	0.752	0.771	0.706	0.8	0.781	0.762	0.671	0.888	0.679	0.635	0.597	0.614	0.631	0.841	0.715	0.661	0.624	0.658
NCI-H2009	1.15	1.17	0.908	0.896	0.404	1.04	0.897	0.817	0.701	0.519	1.07	1.06	0.925	0.874	0.326	0.859	0.391	0.697	0.63	0.369
NCI-H2023	1	0.897	0.897	0.77	0.48	0.723	0.532	0.515	0.551	0.343	0.663	0.589	0.427	0.475	0.247	0.728	0.165	0.545	0.55	0.353
NCI-H2085	1.1	1.04	0.897	0.93	0.776	0.426	0.332	0.376	0.412	0.327	1.03	0.891	0.923	0.84	0.616	0.756	0.7	0.669	0.663	0.362
NCI-H2087	1.04	0.843	0.802	0.685	0.495	0.175	–	0.137	0.235	0.203	1.18	0.962	0.824	0.68	0.531	1.08	0.814	0.688	0.649	0.442
NCI-H2126	0.861	0.848	0.743	0.745	0.561	0.869	0.79	0.564	0.535	0.369	0.793	0.748	0.679	0.591	0.414	0.819	0.581	0.728	0.618	0.452
